Counter-ions that a name gives are not always drawn.

The term IC50 denotes the point on the concentration scale where inhibition reaches its midpoint.

The first assay deals with T1, human high molecular weight urokinase (Homo sapiens, UniProt P00749).
T1 construct: human high molecular weight urokinase; purchased American Diagnostica, Greenwich, Conn
As to the kind of experiment: Urokinase Direct Assay. As to conditions: inhibitor concentration of 1 mM. The assay is classed as biochemical. Here is the method:
(i) A direct chromogenic assay in which urokinase cleaves a synthetic tripeptide p-nitroanilide (pNA) urokinase substrate.
Incubations were carried out at 37° C. for approximately 2 hours or until adequate yellow color developed. Color was quantitated by measuring absorbance at 405 nm (A405) using a Titertek Multiskan MCC/340 MK II microtiter plate spectrophotometer.
As to “4-(7-Amidino-E-hept-1-enyl)benzo[b]thiophene-2-carboxamidine bishydrochloride [Compound 33]”, the “uPA Direct: percentage of residual urokinase activity relative to inhibitor-free controls” value worked out at 1.3%.

Still in this assay, the particulars now being: read-out: uPA Direct: percentage of residual urokinase activity relative to inhibitor-free controls; heading: uPA Direct: percentage of residual urokinase activity relative to inhibitor-free controls; inhibitor concentration of 1 mM.
On to `CCC(C)Cc1cccc2sc(C(=N)N)cc12` (racemic) [Compound 11, 4-([R/S]-2-Methylbutyl)benzo[b]thiophene-2-carboxamidine hydrochloride], for which the residual urokinase activity at 1000 µM was 2.3%.
For `N=C(N)c1cc2c(C3CCCO3)cccc2s1` (racemic) [Compound 61, 4-([R,S]-Tetrahydrofuran-2-yl)benzo[b]thiophene-2-carboxamidine hydrochloride], the residual urokinase activity at 1000 µM worked out at 0.6%.
Consider `CCC(C)Cc1ccc2sc(C(=N)N)cc2c1` (racemic) [Compound 109, 5-([R/S]-2-Methylbutyl)benzo[b]thiophene-2-carboxamidine hydrochloride], for which the residual urokinase activity at 1000 µM came out at 6.6%.
The same measure, in the same setting: the figure for `N=C(N)c1cc2c(F)cccc2s1` [Compound 2, 4-Fluorobenzo[b]thiophene-2-carboxamidine hydrochloride] is 7.2%.
Same read-out and setting: the figure for `N=C(N)c1cc2c(Cl)cccc2s1` [Compound 3, 4-Chlorobenzo[b]thiophene-2-carboxamidine hydrochloride] is 3%.
With `N=C(N)c1cc2c(Br)cccc2s1` [Compound 4, 4-Bromobenzo[b]thiophene-2-carboxamidine hydrochloride], the residual urokinase activity at 1000 µM stood at 0.8%.
With `CC(C)c1cccc2sc(C(=N)N)cc12` [Compound 8, 4-(1-Methylethyl)benzo[b]thiophene-2-carboxamidine hydrochloride], the residual urokinase activity at 1000 µM was 0.9%.
Take `N=C(N)c1cc2c(CCC3CC3)cccc2s1` [Compound 14, 4-(2-Cyclopropylethyl)benzo[b]thiophene-2-carboxamidine hydrochloride]: the residual urokinase activity at 1000 µM came to 0.54%.
On to `N=C(N)c1cc2c(CCc3ccccc3)cccc2s1` [Compound 15, 4-(2-Phenylethyl)benzo[b]thiophene-2-carboxamidine hydrochloride], for which the residual urokinase activity at 1000 µM worked out at 0.35%.
Take `CC(c1ccccc1)c1cccc2sc(C(=N)N)cc12` (stereo not shown) [Compound 16, 4-(1-Phenylethyl)benzo[b]thiophene-2-carboxamidine hydrochloride]: the residual urokinase activity at 1000 µM was determined as 1.4%.
As to `C=C(C)c1cccc2sc(C(=N)N)cc12` [Compound 18, 4-(1-Methylethenyl)benzo[b]thiophene-2-carboxamidine hydrochloride], the residual urokinase activity at 1000 µM stood at 1.3%.
As to `CCC=Cc1cccc2sc(C(=N)N)cc12` [Compound 20, 4-(E/Z-But-1-enyl)benzo[b]thiophene-2-carboxamidine hydrochloride], the residual urokinase activity at 1000 µM amounted to 0.8%.
Regarding `CCC(C)=Cc1cccc2sc(C(=N)N)cc12` [Compound 21, 4-(E/Z-2-Methylbut-1-enyl)benzo[b]thiophene-2-carboxamidine hydrochloride], the residual urokinase activity at 1000 µM was determined as 1.1%.
On to `CCC(/C=C/c1cccc2sc(C(=N)N)cc12)CC` [Compound 28, 4-(E-3-ethylpent-1-enyl)benzo[b]thiophene-2-carboxamidine hydrochloride], for which the residual urokinase activity at 1000 µM is 0.46%.
Same read-out and setting: the figure for `CCCCCCCC/C=C/c1cccc2sc(C(=N)N)cc12` [Compound 31, 4-(E-Dec-1-enyl)benzo[b]thiophene-2-carboxamidine hydrochloride] is 5.2%.
In the case of `N=C(N)c1cc2c(/C=C/CCCO)cccc2s1` [Compound 32, 4-(E-5-Hydroxypent-1-enyl)benzo[b]thiophene-2-carboxamidine hydrochloride], the residual urokinase activity at 1000 µM worked out at 0.67%.

The target in the next assay is T2, human two-chain tPA (Homo sapiens, UniProt P00750).
T2 construct: human two-chain tPA was substituted for urokinase; purchased American Diagnostica
T2 sequence (P00750 311-562 limits assumed): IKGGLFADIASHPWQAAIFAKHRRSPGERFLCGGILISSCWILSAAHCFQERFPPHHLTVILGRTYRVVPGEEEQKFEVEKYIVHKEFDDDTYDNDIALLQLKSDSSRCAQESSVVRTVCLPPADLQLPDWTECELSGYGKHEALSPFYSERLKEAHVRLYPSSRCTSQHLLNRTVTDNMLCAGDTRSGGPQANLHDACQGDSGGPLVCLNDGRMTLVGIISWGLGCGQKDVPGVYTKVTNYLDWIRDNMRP
T2 sequence (P00750 36-310 limits assumed): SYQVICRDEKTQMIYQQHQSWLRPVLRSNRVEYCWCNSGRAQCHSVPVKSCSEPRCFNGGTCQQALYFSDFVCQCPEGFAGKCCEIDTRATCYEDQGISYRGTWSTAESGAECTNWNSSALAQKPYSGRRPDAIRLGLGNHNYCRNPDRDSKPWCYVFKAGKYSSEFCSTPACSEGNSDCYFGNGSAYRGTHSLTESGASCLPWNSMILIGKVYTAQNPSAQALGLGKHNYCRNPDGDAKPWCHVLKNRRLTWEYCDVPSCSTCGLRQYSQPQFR
The experiment in a line: tPA Indirect (Plasminogen-Linked) Assay (tPA Direct Assay result where lower). The assay is classed as biochemical. As to conditions: tPA Indirect Plasminogen-Linked Assay; in rare cases direct assay result if lower; read-out: tPA IC50. The source says:
(iv) Both direct and plasminogen-linked pNA assays for tPA, the other mammalian plasminogen activator and the key initiator of blood clot dissolution or fibrinolysis. Since urokinase and tPA share an absolute specificity for the same peptide bond in plasminogen, urokinase inhibitors designed to block cellular invasiveness must be highly specific for urokinase over tPA in order to avoid serious thrombotic side effects secondary to undesired blockage of normal fibrinolysis. […] Spectrozyme tPA®, American Diagnostica) was substituted for urokinase substrate.
Turning to `Cc1cccc2sc(C(=N)N)cc12` [Compound 6, 4-Methylbenzo[b]thiophene-2-carboxamidine hydrochloride], the IC50 was determined as 478 µM.

The next assay deals with T3, human plasmin (Homo sapiens, UniProt P00747).
T3 construct: plasmin, the potent general protease produced by cleavage of plasminogen by either urokinase or tPA; purchased American Diagnostica
T3 sequence (P00747 581-810 limits assumed): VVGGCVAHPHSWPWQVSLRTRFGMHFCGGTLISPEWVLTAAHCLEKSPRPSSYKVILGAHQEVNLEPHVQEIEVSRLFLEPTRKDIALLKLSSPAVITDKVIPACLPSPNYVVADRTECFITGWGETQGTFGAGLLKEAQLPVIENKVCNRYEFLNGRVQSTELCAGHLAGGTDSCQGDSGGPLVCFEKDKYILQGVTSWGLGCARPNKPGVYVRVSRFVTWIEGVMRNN
T3 sequence (P00747 97-580 limits assumed): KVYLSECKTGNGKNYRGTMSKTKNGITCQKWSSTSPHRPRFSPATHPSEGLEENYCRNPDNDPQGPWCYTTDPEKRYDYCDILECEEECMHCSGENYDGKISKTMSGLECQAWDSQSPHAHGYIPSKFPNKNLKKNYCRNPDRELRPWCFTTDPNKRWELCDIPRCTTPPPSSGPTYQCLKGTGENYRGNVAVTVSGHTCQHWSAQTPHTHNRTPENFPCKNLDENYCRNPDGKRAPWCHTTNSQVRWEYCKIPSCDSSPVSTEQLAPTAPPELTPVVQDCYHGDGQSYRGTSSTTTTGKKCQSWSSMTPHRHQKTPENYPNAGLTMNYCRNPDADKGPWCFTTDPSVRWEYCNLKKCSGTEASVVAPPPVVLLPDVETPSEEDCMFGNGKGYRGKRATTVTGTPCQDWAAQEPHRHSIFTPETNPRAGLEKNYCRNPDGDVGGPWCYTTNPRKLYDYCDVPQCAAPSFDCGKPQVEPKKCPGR
The experiment in a line: Plasmin Assay. The assay is classed as biochemical. The conditions noted are these: read-out: PLASMIN IC50. On the procedure: (v) A chromogenic pNA assay for plasmin, the potent general protease produced by cleavage of plasminogen by either urokinase or tPA. Although urokinase initiates cellular invasiveness by generating plasmin, the additional importance of plasmin in tPA-mediated fibrinolysis dictates that plasmin itself should be free from inhibition by urokinase inhibitors designed as anti-invasiveness agents. […] All other assay conditions, as well as methods of color quantitation, were carried out as described above for the urokinase direct assay.
Consider `Cc1cccc2sc(C(=N)N)cc12` [Compound 6, 4-Methylbenzo[b]thiophene-2-carboxamidine hydrochloride], for which the half-maximal inhibitory concentration (IC50) was 881 µM.

The record behind these values is patent US5340833A, “Urokinase inhibitors” (Eisai Co., Ltd., priority 1992, dated 1994).
